Reference: patent US5407815A, “R-(-)-1-(5-hydroxyhexyl)-3-methyl-7-propylxanthine, a process for its preparation and pharmaceuticals containing this compound” (Hoechst Aktiengesellschaft, priority 1989, dated 1995)

Legend:
[1] = test system: regional cerebral blood flow; test: Regional cerebral blood flow of the cat, heat conductivity technique (heat transport number λ); format: in vivo; settings: for duration of action as the half life t1/2 / Δλ% (mean percentage change of the heat transport number): anesthetized cat, 25 mg/kg intraduodenally; for Δλ% (mean percentage change of the heat transport number): suspension in 1% carboxymethylcellulose, n = 6 to 11; for conversion factor (f), based on Δλ%=1 for the racemate: intraduodenal, 25 mg/kg; for cerebral blood flow-stimulating action relative to racemate: racemate made equal to 1
Description: The action of compound 1 according to the invention on the regional cerebral blood flow was investigated in comparison with the racemate 2 and the S-(+)-enantiomer 3 with the aid of the heat conductivity technique according to F. A. Gibbs (Proc. Soc. exp. Biol. (N.Y.) 31 (1933), pp. 141 et seq.), H. Hensel (Naturwissenschaften 43 (1956), pp. 477 et seq.) and E. Betz (Acta Neurol. Scand. Suppl. 14 (1965), pp. 29-37) in cats of both sexes under sodium pentobarbital anesthesia (35 mg/kg i.p.). In this method, with the aid of a heat conductivity probe applied to the surface of the brain in the region of the Gyrus marginalis frontalis, the transport of heat from a point of heating to an adjacent temperature-measuring site in the probe, which is directly proportional to the level of the cerebral blood flow, is determined. The mean percentage change in the heat transport number λ after administration of the preparation is used as a measure of the increase in blood flow.
The compounds were administered intraduodenally as a suspension in 1% strength aqueous carboxymethylcellulose. The dose was 25 mg of test substance per kg of body weight. 6 to 11 individual experiments were carried out for each test preparation and the mean percentage change in the heat transport number (Δλ%) was determined from the measurement data obtained.
The melting points m.p., the enantiomeric purities e.e. (enantiomeric excess), the number of measurements n, the mean percentage change (Δλ%) of the heat transport number as a measure of the potency, the conversion factors f, based on Δλ%=1 for the racemate, and the duration of action as the half life t1/2 (min) for R-(-)-1-(5-hydroxyhexyl)-3-methyl-7-propylxanthine (1), the corresponding enantiomer S-(+)-1-(5-hydroxyhexyl)-3-methyl-7-propylxanthine (3) and the racemate (2) of the two compounds is indicated in Table 1.

cerebral blood flow = settings: known from DE-C-2,366,527; cited from earlier work

Structure (SMILES) | duration of action as the half life t1/2 [1] | Δλ% (mean percentage change of the heat transport number) [1] | conversion factor (f), based on Δλ%=1 for the racemate [1] | cerebral blood flow-stimulating action relative to racemate [1] | cerebral blood flow-stimulating action (qualitative) (cerebral blood flow) | cerebral blood flow-stimulating action of R-(-)-enantiomer relative to S-(+)-antipode ([1]; ratio R-(-) to S-(+)) | duration of action of R-(-)-compound relative to S-(+)-compound ([1]; ratio R-(-) to S-(+))
CCCn1cnc2c1c(=O)n(CCCCC(C)O)c(=O)n2C (racemic) [Compound 2, 1-(5-hydroxyhexyl)-3-methyl-7-propylxanthine] | 100 min | +24% | 1.00 | 1 | cerebral blood flow-stimulating action | – | –
CCCn1cnc2c1c(=O)n(CCCC[C@@H](C)O)c(=O)n2C [Compound 1, R-(-)-1-(5-hydroxyhexyl)-3-methyl-7-propylxanthine] | 100 min | +45% | 1.88 | about 2 | – | about three | about three
CCCn1cnc2c1c(=O)n(CCCC[C@H](C)O)c(=O)n2C [Compound 3, S-(+)-1-(5-hydroxyhexyl)-3-methyl-7-propylxanthine] | 36 min | +16% | 0.67 | about 0.65 | – | – | –
